Here are results for three molecules from patent US20250017895A1, “FLAVANOID CONTAINING COMPOSITIONS AND METHODS OF USE THEREOF FOR THE TREATMENT OF MITOCHONDRIAL DISORDERS” (priority 2021, published 2025).

Series [1] deals with Pdss2kd/kd homozygous missense mutant mice. The series can be described thus: Liver mitochondrial content (VDAC western blot, citrate synthase activity) in Pdss2kd/kd mice. The settings on record: 5 μg/mL or 10 μg/mL in drinking water; both sexes. Format: in vivo.
Series [2] concerns gas-1(fc21) ndufs2−/− mutant worms. The experiment in a line: In vivo terminal pharyngeal bulb fluorescence (MitoSOX, MitoTracker Green, TMRE) in gas-1(fc21) worms. On the set-up: species or system C. elegans. The method, then: In each panel, n conveys the number of animals studied per conditions. Bars and error bars convey mean and standard error, respectively.
Mitochondrial oxidant burden (MitoSOX Red), membrane potential (tetramethylrhodamine ethyl ester, TMRE), and mitochondrial content (MitoTracker Green FM, MTG) were performed in C. elegans at 20° C. using in vivo terminal pharyngeal bulb relative fluorescence microscopic quantitation. […] Worms were then paralyzed in situ with 5 mg/ml levamisole. Photographs were taken in a darkened room at 160× magnification with a Cool Snap cf2 camera (Nikon, Melville, N.Y.). A CY3 fluorescence cube set (MZFLIII, Leica, Bannockburn, Ill.) was used for MitoSOX and TMRE. A GFP2 filter set (Leica) was used for MitoTracker Green FM. Respective exposure times were 2 s, 320 ms, and 300 ms for each of MitoSOX, TMRE, and MitoTracker Green FM. The resulting images were background subtracted, and the nematode terminal pharyngeal bulb was manually circled to obtain mean intensity of the region by using Fiji Is Just ImageJ. Fluorescence data for each strain were normalized to its same day control to account for day-to-day variation. A minimum of 3 independent experiments of approximately 50 animals per replicate were studied per strain per dye. The significance of the difference in the mean fluorescence intensity between strains under different experimental conditions was assessed by mixed-effect ANOVA, which analyzes potential batch effect due to samples being experimentally prepared, processed, and analyzed on different days by including a batch random effect in the model. A statistical significance threshold was set at P<0.05. All statistical analyses were performed in SAS 9.3.
FIGS. 4A-4E show in vivo quantification of relative mitochondrial oxidant burden, mitochondrial content, and mitochondrial membrane potential in gas-1(fc21) complex I disease worms.

Series [3] deals with gas-1(fc21) mitochondrial complex I disease worms. The series can be described thus: Worm neuromuscular activity by body bend rate analysis. The settings on record: 100 nMol. Format: in vivo, C. elegans. From the text:
FIGS. 5A and 5B: Worm neuromuscular activity as assayed by body bend rate analysis was reduced in gas-1(fc21) mitochondrial complex I disease ndufs2^−/− worms relative to wild-type (N2 Bristol) worms.
(§1) Neuromuscular activity, and lifespan were quantified in the C. elegans gas-1(fc21) ndufs2^−/− mutants. A semi-automated screening method (Mathew et al, 2016) was used to test drug treatment effects on an integrated C. elegans health endpoint of fecundity, brood size, and behavior.

The test system of series [4] is FBXL4-human disease patient fibroblasts. The series can be described thus: FBXL4 patient fibroblast cell death in galactose. Format: cell-based. The settings on record: 20 nM; 72 hours in galactose. The method, then:
(§2) Human fibroblasts were studied from a subject harboring a 1067del (p.Gly356Alafs*15) nonsense mutation in the maternal FBXL4 allele and a c. 1790A>C (p.GLn597Pro) missense mutation in the paternal FBXL4 allele (Gal et al, 2013). Fibroblasts were cultured in DMEM (1 g/L glucose, 0.8 g/L L-Glutamine, 110 mg/L Sodium Pyruvate). Light, fluorescence, confocal microscopy and transmission electron microscopy (TEM, Lavorato et al. 2017) methods were used to analyze proband fibroblasts and mitochondrial morphology at baseline and following metabolic stress induced by incubating cells for 48 hours in glucose/uridine-free media. Mitotracker green was used for fluorescence microscopy, Tom20 Antibody (Santa Cruz) and DAPI was used for confocal microscopy.

Series [5] has as its system nutrient sensing signaling network (NSSN) gene expression. The experiment in a line: NSSN gene expression and RNAseq KEGG pathway profiling in gas-1(fc21) worms. Format: in vivo, C. elegans. The settings on record: 24 hours; for MAPK signaling pathway expression (RNAseq, KEGG): relative to DMSO-only buffer. From the text:
RQ, relative quantitation. […] Pathways marked with a star are also positively modulated in this same mitochondrial disease animal model by combination glucose+nicotinic acid+N-acetylcysteine triple therapy.
It is already evident that epicatechin therapy in some diseases can favorably alter the activities of central NSSN nodes, such as AMPK, that are known to regulate cell proliferation, autophagy, and mitochondrial proliferation. […] The pathways marked with a star can similarly be restored in gas-1(fc21) complex I deficient worms by combination therapy of glucose+nicotinic acid+N-acetylcysteine.

The subject of another series is Pdss2kd/kd mice. The series can be described thus: Liver NAD+, NADH and NADH:NAD+ redox analysis in Pdss2kd/kd mice. The series is classed as in vivo. The settings on record: 5 μg/mL to 10 μg/mL in drinking water; 2 months. From the text: FIGS. 17A-17E: Biochemical analysis of mitochondrial amount (citrate synthase activity) and NADH:NAD+ redox balance in coenzyme Q deficient Pdss2^kd/kd mice. […] Biochemical studies are shown both by sex and all grouped together, where n=number of animals studied per group.
Untreated mice included 2M and 1F.

Series [6] relates to human fibroblasts from a patient with FBXL4 disease. The experiment in a line: FBXL4 patient fibroblast mitochondrial content by FACS of Mitotracker Green. Format: cell-based. The settings on record: for increase in cellular mitochondrial content compared to baseline: overnight incubation, data not shown; for improvement of mitochondrial content: 24 hours, galactose media. The method, then: as §2

Another series concerns ndufs2−/− zebrafish. The series can be described thus: ndufs2−/− zebrafish dark-induced swimming activity with low-dose rotenone (Zebrabox). The series is classed as in vivo, Danio rerio.
In series [7] the test system is cell or animal models of primary RC dysfunction. The experiment in a line: Overall observations across cell and animal models of primary RC dysfunction.
For series [8], the system named is gas-1(fc21) ndufs2−/− complex I disease mutant worms. The experiment in a line: C. elegans gas-1(fc21) lifespan analysis. The settings on record: FUDR used. Format: in vivo.
Source text: FIG. 2C, the Table below FIGS. 2A and 2B indicates specific values and P values calculated in Graphpad Prism v5.0 for graph shown in FIG. 2B (survival data is shown in days).
as §1
(−) Epicatechin and (+) Epicatechins act through mimicry of the endogenous mitochondrial steroid 11-β-hydroxypregnenolone (11-OHP), a potent inducer of mitochondrial biogenesis. C. elegans nematode strains studied included wild-type (N2 Bristol) and gas-1(fc21) mutants. […] FIGS. 2D, 2E and 2F are graphs show a side-by-side comparison of (+)-epicatechin, (−)-epicatechin and 11-0HP on gas-1(fc-21) worm survival.

Series [9] has as its system Human podocytes (renal glomerular cells). The experiment in a line: Human podocyte viability / cell death under rotenone complex I inhibition. The settings on record: for cell death caused by rotenone (45% cell death): 12.5 nM rotenone.
Another series concerns AB (wild-type) zebrafish. The series can be described thus: AB wild-type zebrafish swimming activity with high-dose rotenone. Format: in vivo, Danio rerio. From the text: Each symbol indicates one fish. **, p<0.01. ***, p<0.001.
EP07, 11-hydroxyprogesterone. **, p<0.01. Each symbol conveys activity of one well with n=8 animals/well in a 96-well plate, as quantified in dark-cycle analysis in the Zebrabox (Viewpoint).
Swimming activity (Zebrabox) was quantified in first five-minute periods of three consecutive dark cycles across 3 biological replicate experiments. Activity score was normalized to percent of wild-type concurrent controls. […] AB (wild-type) zebrafish had reduced swimming activity with high dose (70 nM) rotenone exposure for 4 hours on 7 dpf.
The indicated agents were added at 5 and 6 dpf, twice a day. 70 nM rotenone was added on 7 dpf. 4 hours later the larvae were transferred into a 96 well plate (1fish per well, 8 wells per condition), 96-well plates were immediately placed into NOLDUS to evaluate swim activity in repeating light-dark exposure. Swim activity effects were averaged in first 5 minutes of each light-off (‘dark’) period across all light on/off cycles.

Where [10] appears, read: 10 nMol, 72 hours, redosing every 24 hours.

Entries after “also recorded” stand apart in the source; their conditions may differ.

On to `Oc1cc(O)c2c(c1)O[C@@H](c1ccc(O)c(O)c1)[C@@H](O)C2` [(+) epicatechin], for which the “citrate synthase activity in liver” value in series [1] was “substantially increased”. Also, the “improvement of mitochondrial membrane potential towards wild type levels” value in [2] (10 nM, 24 hours) was found to be 62%. In series [2] (10 nM, 24 hours, most improved concentration), the “improvement in mitochondrial content (MitoTracker Green)” value amounted to 39%. Besides, the mitochondrial content result in [2] (1 nMol, 24 hours) is given as “significantly rescued”; in series [2] (10 nMol, 24 hours) it was “significantly rescued”; in series [2] (setting [10]), “significant rescue; also recorded: significantly rescued”; in [2] (100 nMol, 24 hours), “significantly rescued”; in series [6] (1 nMol to 20 nMol range), “significantly increased”. Besides, the mitochondrial oxidant burden entry in series [2] (1 nMol, 24 hours) is listed as “significantly rescued”; in series [2] (10 nMol, 24 hours), “significantly rescued”; in series [2] (setting [10]) it was “complete reversal; also recorded: significantly rescued”; in series [2] (100 nMol, 24 hours), “significantly rescued”. The mitochondrial membrane potential entry in [2] (10 nMol, 24 hours) is listed as “significantly recued”. In addition, the “mitochondrial oxidant burden (MitoSox)” value in series [2] (all concentrations of 3-log order dose range, 24 hours) is recorded as “complete normalization”. Also, in [3], the “impaired neuromuscular function (body bend rate) toward wild-type” value (from here on “impaired neuromuscular function”) is “rescues; also recorded: significantly rescued”. For the same molecule, in [4], the “increased cell death in galactose” value is “significantly rescued”. Moreover, the “Daf-16 (FOXO) expression, downregulated in gas-1(fc21)” value in series [5] (10 nM) is listed as “substantially upregulated”. Besides, the “Par-4 (LKB1) expression, downregulated in gas-1(fc21)” value in series [5] (10 nM) is reported as “increased”. The “SOD2 (mnSOD) expression, upregulated in gas-1(fc21)” value in series [5] (10 nM, relative to wild-type levels) is “normalized”. Also, in [5], the “MAPK signaling pathway expression (RNAseq, KEGG)” value is “uniquely and substantially modulated”. Besides, the “NAD+ deficiency / NADH:NAD+ redox imbalance in liver” value in the series on Pdss2kd/kd mice is listed as “did not correct”. The “increase in cellular mitochondrial content compared to baseline” value was 14% in series [6] (1 nM) and 21% in series [6] (10 nM). Also, the “improvement of mitochondrial content” value in series [6] (1 nMol) and in series [6] (10 nMol) was 70% throughout. Besides, the swimming activity entry in the series on ndufs2−/− zebrafish (100 nM, low-dose (12 nM) rotenone) is given as “significantly improved”. Further, the “increase in swimming activity toward wild-type controls” value in the series on ndufs2−/− zebrafish (100 nMol pre-treatment from 5 dpf, 12 nMol rotenone at 7 dpf) was about 25%. The “effectiveness of low (nanomolar range) versus higher (micromolar range) concentrations” value in series [7] (C. elegans and human cell studies) was “more effective than higher”. Besides, the adverse effects entry in series [7] (cell or animal models of primary RC dysfunction) is “No adverse effects”. Besides, the “lifespan rescue compared to buffer-only treated gas-1(fc21) worms” value in series [8] (1 nMol) and in series [8] (10 nMol) was “Significant lifespan rescue” each time. Also, the median survival in series [8] (1 nMol, buffer-only gas-1(fc21) 19 days) was 23 days. In series [8] (10 nMol, buffer-only gas-1(fc21) 27 days), this molecule showed a maximum survival of 31 days. Also, the “cell death caused by rotenone (45% cell death)” value is given as “not” in series [9] (1 nM), “improved” in [9] (10 nM) and “improved” in series [9] (100 nM). For the same molecule, the “podocyte viability upon RC inhibition” value in series [9] (10 nM, galactose media, 25 nM rotenone, 48 hours) was “significantly improved”; in series [9] (10 nM, glucose media, 35 nM rotenone, 48 hours), “significantly improved”. Also, the “improvement in cell viability” value in series [9] (10 to 100 nanomolar, rotenone treated human cells) is recorded as “approximately 50%”. Besides, in series [9] (rotenone, 48 hours), the “effectiveness on podocyte viability compared with the other enantiomer” value is recorded as “more effective than (−) epicatechin”.

`CC(=O)[C@H]1CC[C@H]2[C@@H]3CC=C4C[C@@H](O)CC[C@]4(C)[C@H]3[C@@H](O)C[C@]12C` [11-β-hydroxypregnenolone]: the “impaired neuromuscular function” value in series [3] was “protective; also recorded: significantly rescued”. For the same molecule, in the series with AB (wild-type) zebrafish (2 nM pre-treatment from 5 dpf, high-dose (70 nM) rotenone 4 hours at 7 dpf), the “increase in swimming activity toward AB controls” value was about 25%. The swimming activity entry in the series on AB (wild-type) zebrafish (6 nM, high-dose (70 nM) rotenone) is “significantly improved”. Further, in series [5], the “MAPK signaling pathway expression (RNAseq, KEGG)” value was “uniquely and substantially modulated”. Also, the “lifespan rescue compared to buffer-only treated gas-1(fc21) worms” value in series [8] (1 nMol) and in [8] (10 nMol) was “Significant lifespan rescue” each time.

Take `Oc1cc(O)c2c(c1)O[C@H](c1ccc(O)c(O)c1)[C@H](O)C2` [(−) epicatechin]: the “impaired neuromuscular function” value in series [3] is “significantly rescued”. For the same molecule, the “lifespan rescue compared to buffer-only treated gas-1(fc21) worms” value in series [8] (10 nMol) and in series [8] (100 nMol) was “Significant lifespan rescue” throughout.
